Test results: patent US7964645B2, “Di-aromatic substituted amides as inhibitors for GlyT-1” (Hoffmann-La Roche Inc., priority 2006, dated 2011)

Target: T1, mGlyT-1b (Mus musculus, UniProt P28571)
T1 construct: host or cells: Flp-in-CHO
T1 sequence (P28571 1-651 isoform P28571-2): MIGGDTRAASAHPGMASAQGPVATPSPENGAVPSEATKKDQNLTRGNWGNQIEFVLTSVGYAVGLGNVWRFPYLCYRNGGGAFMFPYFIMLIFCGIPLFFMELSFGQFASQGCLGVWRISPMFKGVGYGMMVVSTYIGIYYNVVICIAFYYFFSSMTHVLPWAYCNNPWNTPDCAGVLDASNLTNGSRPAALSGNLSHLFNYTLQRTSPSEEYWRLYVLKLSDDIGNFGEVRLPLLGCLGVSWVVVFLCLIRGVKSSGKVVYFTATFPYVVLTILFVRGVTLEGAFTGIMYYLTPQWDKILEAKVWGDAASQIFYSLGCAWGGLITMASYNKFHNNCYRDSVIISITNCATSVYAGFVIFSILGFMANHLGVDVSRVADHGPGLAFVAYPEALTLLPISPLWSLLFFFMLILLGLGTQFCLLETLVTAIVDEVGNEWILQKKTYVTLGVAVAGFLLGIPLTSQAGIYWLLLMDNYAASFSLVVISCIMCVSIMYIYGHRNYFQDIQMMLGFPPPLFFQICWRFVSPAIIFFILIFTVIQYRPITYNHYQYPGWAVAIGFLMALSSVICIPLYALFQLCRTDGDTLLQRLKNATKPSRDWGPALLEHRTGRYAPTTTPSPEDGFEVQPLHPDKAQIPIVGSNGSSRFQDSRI
Assay: Glycine Uptake Inhibition Assay (mGlyT-1b)
Assay type: cell-based
Details: [3H]-glycine uptake in Flp-in-CHO cells transfected with mGlyT-1b cDNA; 20 min at 22° C.; read-out: GlyT-1 IC50
Protocol: DMEM complete medium: Nutrient mixture F-12 (Gibco Life-technologies), fetal bovine serum (FBS) 5%, (Gibco life technologies), Penicillin/Streptomycin 1% (Gibco life technologies), Hygromycin 0.6 mg/ml (Gibco life technologies), Glutamine 1 mM Gibco life technologies)
Uptake buffer (UB): 150 mM NaCl, 10 mM Hepes-Tris, pH 7.4, 1 mM CaCl2, 2.5 mM KCl, 2.5 mM MgSO4, 10 mM (+) D-glucose.
Flp-in™-CHO (Invitrogen Cat n^o R758-07) cells stably transfected with mGlyT1b cDNA.
Glycine Uptake Inhibition Assay (mGlyT-1b)
On day 1 mammalian cells, (Flp-in™-CHO), transfected with mGlyT-1b cDNA, were plated at the density of 40,000 cells/well in complete F-12 medium, without hygromycin in 96-well culture plates. On day 2, the medium was aspirated and the cells were washed twice with uptake buffer (UB). The cells were then incubated for 20 min at 22° C. with either (i) no potential competitor, (ii) 10 mM non-radioactive glycine, (iii) a concentration of a potential inhibitor. A range of concentrations of the potential inhibitor was used to generate data for calculating the concentration of inhibitor resulting in 50% of the effect (e.g. IC50, the concentration of the competitor inhibiting glycine uptake of 50%). A solution was then immediately added containing [^3H]-glycine 60 nM (11-16 Ci/mmol) and 25 μM non-radioactive glycine. The plates were incubated with gentle shaking and the reaction was stopped by aspiration of the mixture and washing (three times) with ice-cold UB. The cells were lysed with scintillation liquid, shaken 3 hours and the radioactivity in the cells was counted using a scintillation counter.

| Structure (SMILES) | IC50 |
| --- | --- |
| O=C(CNC(=O)c1ccc(F)cc1)NC(c1ccc(Cl)cc1)c1cccc(C(F)(F)F)c1 (racemic) [Example 1.76, rac-N-({[(4-Chloro-phenyl)-(3-trifluoromethyl-phenyl)-methyl]-carbamoyl}-methyl)-4-fluoro-benzamide] | 74 nM |
| O=C(CNC(=O)c1ccc(F)cc1)NC(c1ccccc1)c1cc(F)cc(F)c1 (racemic) [Example 1.72, rac-N-({[(3,5-Difluoro-phenyl)-phenyl-methyl]-carbamoyl}-methyl)-4-fluoro-benzamide] | 25 nM |
| O=C(CNC(=O)c1ccsc1)NC(c1cccc(F)c1)c1cccc(F)c1 [Example 1.98, Thiophene-3-carboxylic acid ({[bis-(3-fluoro-phenyl)-methyl]-carbamoyl}-methyl)-amide] | 28 nM |
| Cc1ccc(C(=O)NCC(=O)NC(c2cccc(F)c2)c2cccc(F)c2)s1 [Example 1.86, 5-Methyl-thiophene-2-carboxylic acid ({[bis-(3-fluoro-phenyl)-methyl]-carbamoyl}-methyl)-amide] | 42 nM |
| O=C(CNC(=O)c1ccc(F)cc1)NC(c1ccccc1)c1ccc(F)cc1 (racemic) [Example 1.69, rac-4-Fluoro-N-({[(4-fluoro-phenyl)-phenyl-methyl]-carbamoyl}-methyl)-benzamide] | 88 nM |
| O=C(CNC(=O)c1ccc([N+](=O)[O-])s1)NC(c1ccccc1)c1ccc(Cl)cc1 (racemic) [Example 1.32, rac-5-Nitro-thiophene-2-carboxylic acid ({[(4-chloro-phenyl)-phenyl-methyl]-carbamoyl}-methyl)-amide] | 15 nM |

Other lines, results leading:

| IC50 | Structure (SMILES) |
| --- | --- |
| 48 nM | O=C(CNC(=O)c1ccc(F)cc1)NC(c1ccc(F)cc1)c1cccc(C(F)(F)F)c1 (racemic) [Example 1.77, rac-4-Fluoro-N-({[(4-fluoro-phenyl)-(3-trifluoromethyl-phenyl)-methyl]-carbamoyl}-methyl)-benzamide] |
| 54 nM | O=C(CNC(=O)c1ccccc1)NC(c1ccccc1)c1cccc(C(F)(F)F)c1 (racemic) [Example 1.30, rac-N-({[Phenyl-(3-trifluoromethyl-phenyl)-methyl]-carbamoyl}-methyl)-benzamide] |
| 58 nM | Cc1ccc(C(NC(=O)CNC(=O)c2ccc(F)cc2)c2cccc(C(F)(F)F)c2)cc1 (racemic) [Example 1.78, rac-4-Fluoro-N-({[p-tolyl-(3-trifluoromethyl-phenyl)-methyl]-carbamoyl}-methyl)-benzamide] |
| 19 nM | N#Cc1ccc(C(=O)NCC(=O)NC(c2ccccc2)c2cccc(C(F)(F)F)c2)cc1 (racemic) [Example 1.44, rac-4-Cyano-N-({[phenyl-(3-trifluoromethyl-phenyl)-methyl]-carbamoyl}-methyl)-benzamide] |
